Data as given in US20220411495A1, “POSITIVE ALLOSTERIC MODULATORS OF THE CALCIUM-SENSING RECEPTOR” (VIB VZW, priority 2019, published 2022).

T1: loss-of-function mutant CaSR Q459R (Homo sapiens, UniProt P41180, Q459R)
T1 construct: expressed in transfected cells
T1 sequence (P41180 20-1078 Q459R): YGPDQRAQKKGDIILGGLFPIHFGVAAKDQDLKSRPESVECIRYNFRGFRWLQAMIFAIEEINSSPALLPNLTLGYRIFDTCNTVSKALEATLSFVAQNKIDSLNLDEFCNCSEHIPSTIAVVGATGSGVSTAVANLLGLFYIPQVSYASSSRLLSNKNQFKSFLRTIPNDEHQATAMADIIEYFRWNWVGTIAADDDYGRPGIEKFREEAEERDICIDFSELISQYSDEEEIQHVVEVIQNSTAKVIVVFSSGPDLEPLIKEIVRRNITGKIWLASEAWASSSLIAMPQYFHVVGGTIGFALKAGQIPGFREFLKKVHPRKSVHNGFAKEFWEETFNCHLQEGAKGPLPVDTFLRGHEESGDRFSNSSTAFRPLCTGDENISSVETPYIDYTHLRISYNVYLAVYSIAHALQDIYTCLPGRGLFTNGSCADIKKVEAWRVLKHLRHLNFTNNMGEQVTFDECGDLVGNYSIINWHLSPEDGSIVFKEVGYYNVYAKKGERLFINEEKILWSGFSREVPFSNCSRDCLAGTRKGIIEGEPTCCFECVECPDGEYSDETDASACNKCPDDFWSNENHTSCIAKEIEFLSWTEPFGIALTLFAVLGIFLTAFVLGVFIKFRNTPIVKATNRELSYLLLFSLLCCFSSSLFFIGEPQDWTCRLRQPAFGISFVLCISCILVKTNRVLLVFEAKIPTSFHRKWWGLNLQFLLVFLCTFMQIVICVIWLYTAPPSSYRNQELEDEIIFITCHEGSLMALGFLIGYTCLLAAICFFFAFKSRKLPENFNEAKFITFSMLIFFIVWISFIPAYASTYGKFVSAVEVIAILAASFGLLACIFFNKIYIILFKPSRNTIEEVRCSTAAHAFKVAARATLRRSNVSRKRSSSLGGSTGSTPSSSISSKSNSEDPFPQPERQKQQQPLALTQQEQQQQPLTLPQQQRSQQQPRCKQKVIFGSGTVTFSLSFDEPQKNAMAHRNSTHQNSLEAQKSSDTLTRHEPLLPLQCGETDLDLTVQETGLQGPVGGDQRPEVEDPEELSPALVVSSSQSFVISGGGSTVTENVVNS

T2: CaSR 7-transmembrane domain allosteric binding site (Homo sapiens, UniProt P41180)
T2 sequence (P41180 20-1078): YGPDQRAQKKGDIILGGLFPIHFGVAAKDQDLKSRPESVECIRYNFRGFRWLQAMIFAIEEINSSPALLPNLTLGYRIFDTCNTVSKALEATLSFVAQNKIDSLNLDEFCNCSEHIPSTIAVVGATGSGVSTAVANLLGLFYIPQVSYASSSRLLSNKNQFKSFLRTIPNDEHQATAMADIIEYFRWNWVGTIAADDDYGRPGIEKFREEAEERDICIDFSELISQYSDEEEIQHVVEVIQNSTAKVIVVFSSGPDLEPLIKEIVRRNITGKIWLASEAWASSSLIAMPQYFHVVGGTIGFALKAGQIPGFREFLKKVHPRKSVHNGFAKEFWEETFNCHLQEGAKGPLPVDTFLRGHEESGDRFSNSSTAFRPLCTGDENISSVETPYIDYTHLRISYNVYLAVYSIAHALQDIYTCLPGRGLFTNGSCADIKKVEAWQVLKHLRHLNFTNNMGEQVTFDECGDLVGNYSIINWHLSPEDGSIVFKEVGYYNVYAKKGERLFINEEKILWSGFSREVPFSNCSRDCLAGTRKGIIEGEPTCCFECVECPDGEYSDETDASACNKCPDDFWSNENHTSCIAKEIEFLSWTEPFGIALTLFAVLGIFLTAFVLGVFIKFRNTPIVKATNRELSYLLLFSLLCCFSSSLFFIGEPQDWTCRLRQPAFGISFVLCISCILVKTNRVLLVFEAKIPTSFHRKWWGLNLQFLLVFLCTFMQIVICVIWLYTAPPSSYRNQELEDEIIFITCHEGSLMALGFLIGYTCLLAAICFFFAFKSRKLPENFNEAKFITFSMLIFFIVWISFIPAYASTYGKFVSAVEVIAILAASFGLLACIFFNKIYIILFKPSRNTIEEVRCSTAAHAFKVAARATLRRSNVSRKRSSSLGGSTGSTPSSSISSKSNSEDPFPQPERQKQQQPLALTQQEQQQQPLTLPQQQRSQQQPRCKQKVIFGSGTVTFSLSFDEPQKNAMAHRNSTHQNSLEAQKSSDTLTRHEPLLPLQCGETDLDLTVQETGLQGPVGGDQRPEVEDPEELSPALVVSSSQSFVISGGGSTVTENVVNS


Tests used:
[1] = target: T1, loss-of-function mutant CaSR Q459R; experiment: IP1 accumulation assay, Ca2+ concentration-response curve of CaSR Q459R; format: cell-based; details: preliminary experiment; for Concentration at which the PAM effect is initiated: Ca2+ concentration-response curve; for Effect on potency for Ca2+ in CaSR Q459R: increasing PAM concentrations
Protocol: In comparison with loss-of-function mutant S170A, Q459R is a naturally occurring loss-of-function mutant that has previously been associated with familial hypocalciuric hypercalcemia (FHH). The effect of increasing concentrations of CaSR Nb4 or the clinically used PAM cinacalcet on the Ca^2+ concentration-response curve were measured with the IP1 accumulation assay. […] The PAM effect of CaSR Nb4 (0.04 μM) is initiated at a much lower concentration than for cinacalcet (5 μM).
Inositol monophosphate (IP1) accumulation was measured using the commercially available HTRF® IP1 accumulation kit (Cisbio Bioassays, Codolet, France) and an EnVision multimode plate reader (PerkinElmer, Waltham, Mass., USA). Unless stated otherwise, the cells were washed once with 100 μL/well assay buffer and stimulated for 30 minutes at 37° C. with 50 μL/well ligand(s) diluted in assay buffer supplemented with 20 mM LiCl. Following stimulation, the cells were washed once with 100 μL/well and lysed for 30 minutes at room temperature with 30 μL/well lysis buffer provided with the kit. The lysed cells were diluted 1:2 with assay buffer after which 10 μL/well was pipetted to a white 384-well OptiPlate (PerkinElmer, Waltham, Mass., USA). Next, 10 μL of a detection solution consisting of 2.5% IP1-d2 conjugate and 2.5% anti-IP1 antibody diluted in assay buffer was added to each well. Fluorophore emissions were measured after the plate was stored in the dark for 1 h. The 615/665 nm emission ratios measured upon excitation at 340 nm were converted to IP1 concentrations with an IP1 standard curve according to the manufacturer's instructions.

[2] = target: T2, CaSR 7-transmembrane domain allosteric binding site; experiment: [3H]evocalcet radioligand displacement
Protocol: For the seven different nanobodies with potencies in the 10 to 600 nM range, further characterization of their recognition site on the CaSR antigen was performed, since the identification of the nanobody binding-sites at the CaSR is key to understand their interaction and mode-of-action at a molecular and structural level, and will further aid in the development of second-generation nanobodies with enhanced pharmacological parameters. Nanobodies belonging to each family of the five different nanobody families are expected to interact with distinct regions of the CaSR.

[3] = clinical development; cited from earlier work

Concentration at which the PAM effect is initiated [1]	Effect on potency for Ca2+ in CaSR Q459R [1]	Displacement of [3H]evocalcet binding [2]	Molecule	Oral bioavailability [3]
5 µM	able to increase the potency for Ca^2+	did displace	C[C@@H](NCCCc1cccc(C(F)(F)F)c1)c1cccc2ccccc12 [cinacalcet, reference compound]	–
–	–	–	COc1cccc([C@@H](C)NCCCc2ccccc2Cl)c1 [NPS R-568, reference compound]	< 5%
0.04 µM	able to increase the potency for Ca^2+	do not displace	Nb4: llama-derived CaSR-specific nanobody acting as PAM, SEQ ID NO:5 (protein, CaSR Nb4) VHH: QVQLVESGGGLVQAGGSLRLSCAASGRTFSTYRMGWFRQGLGKEREFVAAITANGVRTFYTDSVKGRFTISRDNAKNTLYLQMNSLQPDDTAVYLCAARRKGIFTVQQAQDITDWDYWGQGTQVTVSS	–
